Reference: PubChem BioAssay AID1919008 (Molecular Pharmacology Branch, DTP, NCI, 2023)

System: DMS-114 complex spheroids with HUVEC/MSC, growth % test/control
Assay: Anticancer human tumor DMS-114 cell line growth inhibition [AhR];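 note: spheroids exposed to agents for 7 days before readout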;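 for viability, T/C: 100% = DMSO vehicle control wells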
Conditions: for IC50: curve of first compound; for viability, T/C: stronger effect = lower value
Method in brief: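 Agents were dosed in half-log steps down from roughly clinical Cmax, or from 10 microM where Cmax was unknown, alone and with AhR antagonists. Read-out: percent test/control growth of tumor spheroids containing HUVEC and MSC stromal cells.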

## CC(C)c1c(-c2ccccc2)nc2c(C#N)c[nH]n2c1=O + Cc1cncc(-c2nc(NCCc3c[nH]c4ccccc34)c3ncn(C(C)C)c3n2)c1
Second compound 0.1 µM
  IC50: > 10 µM
Second compound 0.316 µM
  IC50: > 10 µM
Second compound 1 µM
  IC50: > 10 µM
Second compound 3.16 µM
  IC50: > 10 µM
Second compound 10 µM
  IC50: < 0.0316 µM
Second compound 0.1 µM, first compound 0.0316 µM
  viability, T/C: 111%
Second compound 0.1 µM, first compound 0.1 µM
  viability, T/C: 100%
Second compound 0.1 µM, first compound 0.316 µM
  viability, T/C: 103%
Second compound 0.1 µM, first compound 1 µM
  viability, T/C: 108%
Second compound 0.1 µM, first compound 3.16 µM
  viability, T/C: 97.4%
Second compound 0.1 µM, first compound 10 µM
  viability, T/C: 97.4%
Second compound 0.316 µM, first compound 0.0316 µM
  viability, T/C: 107%
Second compound 0.316 µM, first compound 0.1 µM
  viability, T/C: 97.9%
Second compound 0.316 µM, first compound 0.316 µM
  viability, T/C: 103%
Second compound 0.316 µM, first compound 1 µM
  viability, T/C: 92.6%
Second compound 0.316 µM, first compound 3.16 µM
  viability, T/C: 111%
Second compound 0.316 µM, first compound 10 µM
  viability, T/C: 95.3%
Second compound 1 µM, first compound 0.0316 µM
  viability, T/C: 107%
Second compound 1 µM, first compound 0.1 µM
  viability, T/C: 107%
Second compound 1 µM, first compound 0.316 µM
  viability, T/C: 102%
Second compound 1 µM, first compound 1 µM
  viability, T/C: 112%
Second compound 1 µM, first compound 3.16 µM
  viability, T/C: 101%
Second compound 1 µM, first compound 10 µM
  viability, T/C: 108%
Second compound 3.16 µM, first compound 0.0316 µM
  viability, T/C: 92.9%
Second compound 3.16 µM, first compound 0.1 µM
  viability, T/C: 80.6%
Second compound 3.16 µM, first compound 0.316 µM
  viability, T/C: 83.3%
Second compound 3.16 µM, first compound 1 µM
  viability, T/C: 88.8%
Second compound 3.16 µM, first compound 3.16 µM
  viability, T/C: 86.4%
Second compound 3.16 µM, first compound 10 µM
  viability, T/C: 92.6%
Second compound 10 µM, first compound 0.0316 µM
  viability, T/C: 30.4%
Second compound 10 µM, first compound 0.1 µM
  viability, T/C: 40.1%
Second compound 10 µM, first compound 0.316 µM
  viability, T/C: 33.3%
Second compound 10 µM, first compound 1 µM
  viability, T/C: 40%
Second compound 10 µM, first compound 3.16 µM
  viability, T/C: 32.5%
Second compound 10 µM, first compound 10 µM
  viability, T/C: 46.4%
